This is an account of results in patent publication US5100879A, “Method of topically cleansing the human body” (K.K. Ueno Seiyaku Oyo Kenkyujo, priority 1987, dated 1992).

Where two headings read alike, the source gives them in different places.

One series has as its system HTLV-III. The series is described as follows: Anti-AIDS activity, infected cell rate of MT-4 cells infected with HTLV-III at the 6th day (Example 9). In kind it is cell-based. Particulars: for anti-AIDS virus activity, in words: Example 9. The method, then:
To MT-4 cells (30×10^4 /ml) cultured in RPMI-1640 medium containing 10% bovine serum, was inoculated HTLV-III, and the suspension was incubated at 37° C. for 1 hour to cause the adsorption of the virus. The cell:virus ratio was 500:1. The cells were then washed, and cultured with or without various doses of the test substances (same as those of Example 1) at 37° C. under 5% CO2 for 3 days, after which cell growth, viability, and percentage of infected cells were recorded. The infected cells were distinguished from the uninfected cells by an indirect immuno-fluorescence method. Thus, the cultured cells were fixed with cold methanol on a slide glass, reacted with antibody to the HTLV-III-specific antigens, and further with the secondary antibody (having a fluororescent label). The results are shown in FIGS. 9-29, wherein, .gradient., .increment. and .quadrature. show the controls without virus, and show the infection experiments with HTLV-III. The cell growth is indicated in number of cells, the viability (%) in number of viable cells ×100/number of total cells, and the infected cell rate (%) in number of fluorescent-positive cells x 100/number of total cells.
In order to examine the correlation between the anti-AIDS virus activity and the molecular structure (especially, molecular weight and S-content or number of sulfate group in this case) of various test substances including those used in Examples 1-7, the anti-AIDS activities were evaluated for the various naturally occurring polysaccharides, polysaccharides having a sulfate group, mucopolysaccharides, mucopolysaccharide sulfate, and mucopolysaccharide polysulfate. Further, similar experiments were carried out with various other sulfates which were synthetically obtained. The experimental procedures employed are identical to that in the preceding experiments. The cultured MT-4 cells were infected with HTLV-III and the inhibitory effects of various test substances on the infected cell rate (number of fluorescent cell×100/ total cell, %) were determined at the 6th day.

A further series concerns MT-4 cells. Nature of the series: Cytotoxicity, MT-4 cells cultured without virus (Examples 4 and 8). The class given is cell-based, human. The conditions noted are these: without virus; for Viability: 0 μg/ml gives 87; for Cell number: 0 μg/ml gives 124. The text has this: The cell:virus ratio was 500:1. […] The infected cells were distinguished from the uninfected cells by an indirect immuno-fluorescence method. Thus, the cultured cells were fixed with cold methanol on a slide glass, reacted with antibody to the HTLV-III-specific antigens, and further with the secondary antibody (having a fluororescent label). […] The cell growth is indicated in number of cells, the viability (%) in number of viable cells ×100/number of total cells, and the infected cell rate (%) in number of fluorescent-positive cells x 100/number of total cells.

The next series deals with mice. Particulars: cited from earlier work.
Setting [1] is: 10 μg/ml, 6th day, control without test substance 100%.
The mark [2] stands for this setting: 100 μg/ml, 6th day, control without test substance 100%.
[3] abbreviates: 10 μg/ml, 6th day, control without test substance 100%, 8640 min.
The mark [4] stands for this setting: 100 μg/ml, 6th day, control without test substance 100%, 8640 min.
The mark [5] stands for this setting: 1000 μg/ml, 6th day, control without test substance 100%.
Where [6] appears, read: 1 μg/ml, listed as Sodium dextran sulfate (molecular weight: 5000, S-content: 13%).
The mark [7] stands for this setting: 10 μg/ml, listed as Sodium dextran sulfate (molecular weight: 5000, S-content: 13%).
[8] abbreviates: 100 μg/ml, listed as Sodium dextran sulfate (molecular weight: 5000, S-content: 13%).

`O=C[C@H](O)[C@@H](O)[C@H](O)[C@H](O)COS(=O)(=O)O` [Glucose-6-sulfate, reference compound]: in the series with HTLV-III (Human immunodeficiency virus 1, MT4, 144 h, 10 μg/ml, 6th day, control without test substance 100%), the activity at 10 µg/mL stood at 100%. In the series on HTLV-III (Human immunodeficiency virus 1, MT4, 144 h, 100 μg/ml, 6th day, control without test substance 100%), this compound returned an activity at 100 µg/mL of 100%. The compound further came in with an activity at 1000 µg/mL in the series with HTLV-III (Human immunodeficiency virus 1, MT4, 144 h, 1000 μg/ml, 6th day, control without test substance 100%) of 100%.

Regarding `OC[C@H]1O[C@H](OC[C@H]2O[C@H](O[C@]3(CO)O[C@H](CO)[C@@H](O)[C@@H]3O)[C@H](O)[C@@H](O)[C@@H]2O)[C@H](O)[C@@H](O)[C@H]1O` [raffinose, reference compound], the “anti-AIDS virus activity, in words” value in the series on HTLV-III is listed as “None”.

With .iota.-Carrageenan, the Viability in the series on MT-4 cells (1 μg/ml) is given as 94%; in the series with MT-4 cells (10 μg/ml), 93%; in the series on MT-4 cells (100 μg/ml), 80%. The Cell number is recorded as 135 ×10^4 cells/ml in the series on MT-4 cells (1 μg/ml), 128 ×10^4 cells/ml in the series with MT-4 cells (10 μg/ml) and 144 ×10^4 cells/ml with MT-4 cells (100 μg/ml). The “Infected cell (%)” value in the series with HTLV-III (setting [1]) came out at 100%; with HTLV-III (setting [2]), 31%.

As for Agarose [reference compound], the “Infected cell (%)” value in the series with HTLV-III (setting [1]) and with HTLV-III (setting [2]) was 100% in each case.

As for Alginic acid [reference compound], the “Infected cell (%)” value in the series with HTLV-III (setting [1]) and in the series on HTLV-III (setting [2]) was 100% in each case.

In the case of Alginic acid sulfate, the entries for the “Infected cell (%)” value with HTLV-III (setting [1]) and in the series with HTLV-III (setting [2]) were 7% and 4%, respectively. Besides, the “anti-AIDS virus activity, in words” value with HTLV-III was “particularly strong”.

As to Chitin [reference compound], the “Infected cell (%)” value in the series with HTLV-III (setting [1]) and with HTLV-III (setting [2]) was 100% throughout.

On to Chitin sulfate, for which the “Infected cell (%)” value with HTLV-III (setting [1]) is given as 100%; in the series on HTLV-III (setting [2]) it was 81%.

Take Chitosan [reference compound]: the “Infected cell (%)” value in the series on HTLV-III (setting [1]) and in the series on HTLV-III (setting [2]) was 100% each time.

Regarding Chitosan sulfate, the “Infected cell (%)” value with HTLV-III (setting [1]) and in the series on HTLV-III (setting [2]) was 1% each time. For the same compound, the “anti-AIDS virus activity, in words” value in the series with HTLV-III is listed as “particularly strong”.

For Chondroitin [reference compound], the “Infected cell (%)” value with HTLV-III (setting [1]) and with HTLV-III (setting [2]) was 100% in each case.

For “Chondroitin-4-sulfate [reference compound]”, the “Infected cell (%)” value in the series on HTLV-III (setting [1]) and in the series on HTLV-III (setting [2]) was 100% throughout.

For the compound Chondroitin-4-sulfate polysulfate, the “Infected cell (%)” value in the series on HTLV-III (setting [1]) was found to be 2%; with HTLV-III (setting [2]), 1%. Further, the “anti-AIDS virus activity, in words” value in the series with HTLV-III is listed as “particularly strong”.

As to “Chondroitin-6-sulfate [reference compound]”, the “Infected cell (%)” value in the series with HTLV-III (setting [1]) and with HTLV-III (setting [2]) was 100% throughout.

For the compound Chondroitin-6-sulfate polysulfate, the figures for the “Infected cell (%)” value in the series on HTLV-III (setting [1]) and with HTLV-III (setting [2]) were 2% and 1%, respectively. In addition, the “anti-AIDS virus activity, in words” value in the series with HTLV-III is “particularly strong”.

Take Dermatan sulfate [reference compound]: the “Infected cell (%)” value in the series with HTLV-III (setting [1]) was determined as 100%; in the series with HTLV-III (setting [2]), 80%.

As for “Dextran [Dextran 9,000, reference compound]”, the “Infected cell (%)” value with HTLV-III (setting [1]) and in the series with HTLV-III (setting [2]) was 100% throughout.

As to Dextran sulfate [Dextran sulfate 3,500], the “Infected cell (%)” value in the series with HTLV-III (setting [3]) was determined as 100%; with HTLV-III (setting [4]) it was 82%; in the series with HTLV-III (setting [5]), 1%.

As to Dextran sulfate [Dextran sulfate 5,000], the Viability with MT-4 cells (setting [6]) is given as 90%; in the series on MT-4 cells (setting [7]) it was 92%; with MT-4 cells (setting [8]), 93%. Besides, the Cell number in the series on MT-4 cells (setting [6]) is listed as 123 ×10^4 cells/ml; with MT-4 cells (setting [7]) it was 127 ×10^4 cells/ml; in the series on MT-4 cells (setting [8]), 121 ×10^4 cells/ml. Besides, the “Infected cell (%)” value is 18% in the series on HTLV-III (setting [3]) and 0% in the series on HTLV-III (setting [4]).

For Dextran sulfate [Dextran sulfate 8,000], the “Infected cell (%)” value stood at 25% in the series with HTLV-III (setting [3]) and 0% in the series on HTLV-III (setting [4]).

For “Dextran sulfate [Dextran sulfate 500,000]”, the results for the “Infected cell (%)” value in the series with HTLV-III (setting [3]) and with HTLV-III (setting [4]) were 20% and 0%, respectively.

For the compound Fucoidin, the Viability is recorded as 92% in the series with MT-4 cells (1 μg/ml), 99% in the series on MT-4 cells (10 μg/ml) and 93% with MT-4 cells (100 μg/ml). Further, the Cell number with MT-4 cells (1 μg/ml) is given as 141 ×10^4 cells/ml; in the series with MT-4 cells (10 μg/ml), 112 ×10^4 cells/ml; with MT-4 cells (100 μg/ml), 71 ×10^4 cells/ml. The “Infected cell (%)” value is 32% in the series on HTLV-III (setting [1]) and 1% in the series with HTLV-III (setting [2]).

Turning to “Glucose-polysulfate [reference compound]”, the “Infected cell (%)” value with HTLV-III (setting [1]), in the series with HTLV-III (setting [2]) and with HTLV-III (setting [5]) was 100% each time.

Turning to Heparitin sulfate [reference compound], the results for the “Infected cell (%)” value in the series on HTLV-III (setting [1]) and in the series with HTLV-III (setting [2]) were 100% and 90%, respectively.

Turning to Hyaluronic acid [reference compound], the “Infected cell (%)” value in the series with HTLV-III (setting [1]) and in the series with HTLV-III (setting [2]) was 100% each time.

For Hyaluronic acid sulfate, the “Infected cell (%)” value turned out to be 100% with HTLV-III (setting [1]) and 70% with HTLV-III (setting [2]).

With Keratan sulfate [reference compound], the “Infected cell (%)” value in the series on HTLV-III (setting [1]) worked out at 100%; in the series with HTLV-III (setting [2]) it was 80%.

Take “N-acetylglucosamine polysulfate [reference compound]”: the “Infected cell (%)” value in the series on HTLV-III (setting [1]), in the series with HTLV-III (setting [2]) and in the series with HTLV-III (setting [5]) was 100% each time.

Consider colominic acid [reference compound], for which the “anti-AIDS virus activity, in words” value with HTLV-III is “None”.

On to dextran sulfate, for which, in the series on HTLV-III, the “anti-AIDS virus activity, in words” value is recorded as “particularly strong”.

As to inulin [reference compound], the “anti-AIDS virus activity, in words” value in the series with HTLV-III is reported as “None”.

Take methylcellulose [reference compound]: in the series with HTLV-III, the “anti-AIDS virus activity, in words” value was “None”.

For pectin [reference compound], in the series on HTLV-III, the “anti-AIDS virus activity, in words” value is “None”.

Regarding sodium chondroitin sulfate, the “acute toxicity (LD50)” value in the series on mice (intraperitoneally) was ≥ 4,000 mg/kg; in the series on mice (orally), ≥ 7,500 mg/kg.

For κ-Carrageenan, the Viability in the series with MT-4 cells (1 μg/ml) came to 93%; in the series on MT-4 cells (10 μg/ml), 93%; in the series on MT-4 cells (100 μg/ml), 92%. For the same compound, the results for the Cell number in the series with MT-4 cells (1 μg/ml), in the series with MT-4 cells (10 μg/ml) and in the series on MT-4 cells (100 μg/ml) were 147 ×10^4 cells/ml, 149 ×10^4 cells/ml and 111 ×10^4 cells/ml, respectively. Moreover, the “Infected cell (%)” value with HTLV-III (setting [1]) is 95%; in the series with HTLV-III (setting [2]), 1%.

In the case of λ-Carrageenan, the values for the Viability in the series with MT-4 cells (1 μg/ml), with MT-4 cells (10 μg/ml) and in the series on MT-4 cells (100 μg/ml) were 89%, 94% and 94%, respectively. Also, the Cell number is given as 147 ×10^4 cells/ml in the series with MT-4 cells (1 μg/ml), 203 ×10^4 cells/ml with MT-4 cells (10 μg/ml) and 83 ×10^4 cells/ml in the series on MT-4 cells (100 μg/ml). The figures for the “Infected cell (%)” value in the series on HTLV-III (setting [1]) and in the series on HTLV-III (setting [2]) were 3% and 1%, respectively. Further, in the series with HTLV-III, the “anti-AIDS virus activity, in words” value was “particularly strong”.
